Data set [1] relates to rats. Conditions: cited from earlier work.
Data set [2] has as its system mu opioid receptor (MOR). Conditions: depending on the route of administration and the assay measuring analgesia; cited from earlier work.
The conditions of data set [3]: cited from earlier work.
Data set [4] has as its system acute pain model in rats. Description: Analgesic effect (% MPE) after subarachnoid (i.t.) administration in an acute pain model in rats. It counts as in vivo, rat.
Data set [5] relates to rats with induced neuropathic pain. As to the kind of experiment: Chronic constriction injury (CCI) neuropathic pain model, von Frey test, central (subarachnoid) administration. Type of data set: in vivo, rat. As to the method: In the next step of the study, the peptide was administered by the central (subarachnoid) route to rats with induced neuropathic pain (the model of neuropathic pain of loose ligation of the sciatic nerve according to Bennett [Bennett and Xie, 1988]) according to the method described by Yaksh & Rudy (Yaksh T. R., Rudy T. A., Physiol Behav. 17:1031-1036 (1976). In the first step, the level of pain experienced by rats with chronic pain was determined in comparison to healthy rats. The results of the test are shown in FIG. 5. The behavioral test consisted of measuring the level of allodynia on the pelvic, “sick” limb, where the time or strength of the irritating stimulus acting on the bottom of the foot were tested.
In the main test of the analgesic effect of the tested peptide, a single dose of the peptide was administered by the central route at predetermined time intervals. To that end, the compound was dissolved in physiological saline solution and administered by a Hamilton syringe to the rats on days 0, 4, 7, 14 of the experiment. Earlier studies let to establish that in our case, the effective dose of peptide for rats is 2.0 nmol/kg.
In the treatment of chronic pain, pharmacotherapy is based on repeated administration of the active substance, which is often associated with the occurrence of the tolerance and undesired side effects. Therefore, in the next step of the study, the analgesic compound was administered to the rats daily for a period of 14 days, FIG. 7.

[6] abbreviates: daily i.t. administration for 14 days.

The text below walks through data of patent US20250002533A1, “PEPTIDE AND ITS USES” (INSTYTUT MEDYCYNY DOSW[…] […].MIROSLAWA MOSS[…] AKADEMII …, priority 2021, published 2025).

With `C[C@@H](NC(=O)[C@@H](N)Cc1ccc(O)cc1)C(=O)NCC(=O)N[C@@H](Cc1ccccc1)C(=O)NNC(=O)[C@H](Cc1ccccc1)NC(=O)CNC(=O)[C@@H](C)NC(=O)[C@@H](N)Cc1ccc(O)cc1` [biphalin], the “effect after intravenous administration relative to morphine” value in data set [1] (animals, intravenous) is recorded as “corresponds to doses of morphine”. Moreover, in data set [1] (rats, intrathecal), the “activity relative to morphine after administration into the subarachnoid space” value is “more than one thousand times more active than morphine”.
As for `C[C@@H](NC(=O)[C@@H](N)Cc1ccc(O)cc1)C(=O)N[C@@H](Cc1ccccc1)C(=O)NCC(=O)N[C@@H](Cc1ccc(O)cc1)C(=O)N1CCC[C@H]1C(=O)N[C@@H](CO)C(N)=O` [dermorphin, Dermorphin], the “potency relative to morphine” value in data set [2] is listed as 750-2200 times. Besides, the “known stability in human or rat serum” value in data set [3] is 170 to 190 min.
In the case of `CN1CC[C@]23c4c5ccc(O)c4O[C@H]2[C@@H](O)C=C[C@H]3[C@H]1C5` [morphine, reference compound], the “equipotent dose relative to that of the peptide according to the invention” value in data set [4] (i.t.) was “approximately 100 times”. Further, the “dose producing an effect similar to the peptide according to the invention” value in data set [4] (i.t., equipotent dose) stood at 32.0 nmol/kg.
In the case of `C[C@@H](NC(=O)[C@H](CO)NC(=O)[C@@H]1CCCN1C(=O)[C@H](Cc1ccc(O)cc1)NC(=O)CNC(=O)[C@H](Cc1ccccc1)NC(=O)[C@@H](C)NC(=O)[C@@H](N)Cc1ccc(O)cc1)C(=O)N[C@@H](Cc1ccccc1)C(=O)O` [peptide according to the invention, H2N-Tyr-D-Ala-Gly-Phe-Gly-Tyr-Pro-Ser-D-Ala-Phe-OH], in data set [5] (setting [6]), the development of tolerance entry is recorded as “did not develop tolerance”; the “general condition / undesired side effects (weight loss, hyperalgesia to touch, vocalization, hair shedding)” value is reported as “in good general physical condition”; the “hyperalgesia after long-term administration” value was “did not induce hyperalgesia”. For the same compound, the “analgesic effect, daily administration, fourteenth day” value in data set [5] (daily i.t. administration, day 14, versus control group) is on record as “did not induce its analgesic effect”. In addition, in data set [5] (daily i.t. administration, days 4 and 7, versus untreated group), the “analgesic effect, daily administration, days 4 and 7” value is “highly analgesic”. Also, in data set [5] (rats, CCI model, central route), the “effective dose of peptide for rats” value is 2.0 nmol/kg. In data set [5] (single dose i.t. on days 0, 4, 7, 14, result on days 4, 7 and 14 of pain induction, 2.0 nmol/kg), the “analgesic effect, single dose” value is “highly analgesic”. In data set [4] (i.t., 0.004 nmol/kg), the “analgesic effect at the threshold dose” value was “active at a low but noticeable level”. In data set [4] (i.t., 0.04 nmol/kg), the “duration of analgesic effect” value came out at 30 min. The “duration of analgesic effect” value in data set [4] (i.t., 0.08 nmol/kg) was 60 min. Also, the “activity in 60 and 120 min” value in data set [4] (i.t., 0.08 nmol/kg and 0.4 nmol/kg, 60 and 120 min) is 60-70 % MPE. The “analgesic potency compared to morphine” value in data set [4] (i.t., FIGS. 1-3) is reported as “definitely more potent than morphine”. Also, in data set [4] (i.t., highest doses 0.08 nmol/kg and 0.4 nmol/kg), the “duration of maximum effects” value was “up to 30 min”. Also, in data set [4] (subarachnoid, 0.04 nmol/kg, first 30 minutes), the “analgesic effect compared to dermorphin at the lower dose” value was “slightly higher in the first 30 minutes than for dermorphin”. Besides, in data set [4] (subarachnoid, 0.4 nmol/kg, first 30 minutes), the “analgesic effect compared to dermorphin at the higher dose” value is listed as “equipotent for the first 30 minutes”. Also, in data set [4] (subarachnoid, equivalent doses 0.04 and 0.4 nmol/kg), the “analgesic potency compared to dermorphin” value is “as potent as dermorphin”. Moreover, the “value of MPE maintained for 120 minutes after administration” value in data set [4] (subarachnoid, higher dose 0.4 nmol/kg, 120 min) came to 40%.
